Test results published in patent US9198896B2 (priority 2006, dated 2015).
Read-outs that look alike come from different tables or passages of the source.

How the values were obtained:
Teratogenicity study = format: in vivo, mice; details: treatment (oral and intravenous) from conception for 3 weeks
Method: Teratogenicity: For this test, mating was performed between mice as mentioned above in the case of fertility studies. […] But, as soon as they conceived, as indicated by vaginal plug formation, the treatment (oral and intravenous) started and continued for 3 weeks in a similar fashion for chronic toxicity studies. […] These litters also grew up healthy with no signs of abnormality. Healthy litters were born again when mating was performed among these animals.

[1] = Biochemical tests of blood/sera of rats after long-term treatment; format: in vivo, rat; details: 1 week after long-term treatment
[2] = mice, 1 day: oral 2 g, subcutaneous 1 g, intravenous 0.3 g/kg; observed up to 90 days
[3] = Histological studies with mice; format: in vivo; details: oral 0.5 gm/kg once a day for 10 weeks
Source text: After end of the treatment, the mice were killed, and several organs were excised and processed for histological studies. Bone marrow cells were taken from the marrow cavity of the femur bone.
Histological studies with mice: Histological studies were done with several organs of mice, and the results are presented in FIG. 1.

EAC cells [4] = assay: Increase in life span study of EAC cell-inoculated mice; format: in vivo; details: 14 days from day 3
Method: Increase in life span study. For increase in life span study (ILS), testing was evaluated by calculating the median survival time (MST) of the treated (T) and control (C) groups and expressed as ILS value [(T/C−1)×100].
The treatment started from day 3. The amount of each compound indicated in the parentheses is the amount administered per kg body weight per day.
The day on which 10^5 EAC cells were inoculated into each mouse was considered as day 0. The treatment started from day 3. […] 15 animals received a particular mode of treatment. Control group received only normal saline. […] Each set of experiment was repeated 4 times.

[5] = rats
Method: (§1) Long-term (chronic) toxicity study: Mode of treatment and dilution by either water or normal saline were identical to acute toxicity study. Chronic toxicity study was made with four species of animals: mice, rat, rabbit and dog.
Rats. For experiment with these animals, 4 batches of rats were used per mode of treatment. Each batch contained 5 rats either male or female weighing 75-80 g per animal. […] Then, the rats were injected for 3 cycles; one cycle consisted of injections for two consecutive days followed by a rest of 1 day.
(§2) Total number of animals in each group including control and different modes of treatment: 6 (mice), 5 (rats) and 4 (rabbits). Each set of experiment was repeated 4 times for mice and rats and for rabbits 2 times respectively. […] In Table 3, αWeight of animals for mice and rats in gm and for rabbit in Kg.
Details are described in the Tables.

[6] = Pharmacokinetics, single oral dose study; details: for ka (apparent absorption rate constant): 1 to 4 h; for k (elimination rate constant): 4-8 h; for half-life / CL/F / Cmax / Tmax: mouse, whole blood, po
[7] = tested on: ascites sarcoma 180 cells; details: Együd and Szent-Györgyi, 1968; cited from earlier work
[8] = both, rat, in vivo, 6 weeks
[9] = Pharmacokinetics, repeat oral dose study; format: in vivo; details: mice; for V / k / half-life at 30 days: oral 100 mg/kg body wt./day; for half-life at 30 days: mouse, whole blood, po, 100 mg/kg, read-out: t½ (converted)
EAC cells [10] = assay: Tumor growth inhibition study; details: for % of cells present in respect of the control / No. of EAC cells (in million) / Volume of packed cells: day 3 to day 16
[11] = Long-term (chronic) toxicity study, rabbits; details: rabbit, long-term treatment
Source text: as §1
Rabbits. For experiments with rabbits, two groups were used per mode of treatment. Each group in each mode of treatment consists of 4 animals, either male or female.
However, each animal was placed in a separate cage.
as §2
We also measured the body weights of the animals. […] Besides, we also measured several marker enzymes and metabolites in the blood and sera of dog (see below).

[12] = Table 7, MG 30 mg/kg/day ip 0.5 ml
[13] = Table 7, MG 100 mg/kg/day ip 0.5 ml
[14] = Table 11, MG 30 mg/kg/day ip 0.25 ml
[15] = Table 11, MG 100 mg/kg/day ip 0.25 ml
[16] = mice, single oral dose 50 mg/kg
[17] = mice, single oral dose 100 mg/kg
[18] = mice, single oral dose 200 mg/kg
[19] = time after last dose Up to 48 h
[20] = oral 100 mg/kg/day, last dose day 30

Structure (SMILES): CC(=O)C=O [methylglyoxal]
- outcome of pregnancy (teratogenicity) (Teratogenicity study): gave birth to healthy litters
- Creatine kinase ([1]; Intravenous): 0.36 ± 0.04 units/ml
- Creatine kinase-MB ([1]; Intravenous): 0.18 ± 0.01 units/ml
- Hb ([1]; Intravenous): 10.2 ± 0.8 gm/dl
- Serum Urea ([1]; Intravenous): 26.3 ± 2.1 mg/dL
- Serum alanine transaminase ([1]; Intravenous): 28 ± 1.6 units/ml
- Serum alkaline phosphatase ([1]; Intravenous): 41.6 ± 1.2 KA units
- Serum aspartate transaminase ([1]; Intravenous): 125 ± 5 units/ml
- Serum creatinine ([1]; Intravenous): 0.90 ± 0.02 mg/dL
- Serum glucose ([1]; Intravenous): 102 ± 10 mg/dL
- Creatine kinase ([1]; Oral): 0.37 ± 0.05 units/ml
- Creatine kinase-MB ([1]; Oral): 0.16 ± 0.03 units/ml
- Hb ([1]; Oral): 10.4 ± 0.3 gm/dl
- Serum Urea ([1]; Oral): 24.3 ± 1.9 mg/dL
- Serum alanine transaminase ([1]; Oral): 24 ± 2.5 units/ml
- Serum alkaline phosphatase ([1]; Oral): 39.3 ± 1.6 KA units
- Serum aspartate transaminase ([1]; Oral): 132 ± 3 units/ml
- Serum creatinine ([1]; Oral): 0.82 ± 0.03 mg/dL
- Serum glucose ([1]; Oral): 109 ± 6 mg/dL
- Hb ([1]; Subcutaneous): 10.35 ± 0.35 gm/dl
- Serum Urea ([1]; Subcutaneous): 23.5 ± 1.3 mg/dL
- Serum alanine transaminase ([1]; Subcutaneous): 28 ± 2.8 units/ml
- Serum alkaline phosphatase ([1]; Subcutaneous): 45.3 ± 1.8 KA units
- Serum aspartate transaminase ([1]; Subcutaneous): 141 ± 7 units/ml
- Serum creatinine ([1]; Subcutaneous): 0.85 ± 0.03 mg/dL
- Serum glucose ([1]; Subcutaneous): 122 ± 3 mg/dL
- death [2]: No death
- histological examination of organs (liver, kidney, spleen, duodenum, bone marrow) [3]: none of the organs tested by histological examination had any adverse effect
- 60 day survivors/15 animals (EAC cells [4]; [12]): 1
- ILS value (EAC cells [4]; [12]): 34%
- Median survival time (EAC cells [4]; [12]): 26 days
- 60 day survivors/15 animals (EAC cells [4]; [13]): 10
- ILS value (EAC cells [4]; [13]): Cure
- Median survival time (EAC cells [4]; [13]): Indefinite
- 60 day survivors/15 animals (EAC cells [4]; [14]): 1
- ILS value (Median survival time of (Treated/Control − 1) × 100]) (EAC cells [4]; [14]): 35%
- Median survival time (EAC cells [4]; [14]): 27 days
- 60 day survivors/15 animals (EAC cells [4]; [15]): 11
- ILS value (Median survival time of (Treated/Control − 1) × 100]) (EAC cells [4]; [15]): Cure
- Median survival time (EAC cells [4]; [15]): Indefinite
- local reaction to intravenous injections ([5]; intravenous, from 3rd week of the treatment): swelling appeared in the tail and adjoining regions
- toxic effect on physical condition and behavioral pattern, death ([5]; multiple dose, observed up to 90 days after treatment): No toxic effect
- Lag time [6, 16]: ≈55 min
- V (apparent volume of distribution) [6, 16]: 23.31 L/kg
- ka (apparent absorption rate constant) [6, 16]: 0.277 h⁻¹
- k (elimination rate constant) [6, 16]: 0.33 h⁻¹
- Lag time [6, 17]: ≈50 min
- V (apparent volume of distribution) [6, 17]: 41.84 L/kg
- ka (apparent absorption rate constant) [6, 17]: 0.223 h⁻¹
- k (elimination rate constant) [6, 17]: 0.198 h⁻¹
- Lag time [6, 18]: ≈50 min
- V (apparent volume of distribution) [6, 18]: 80.97 L/kg
- ka (apparent absorption rate constant) [6, 18]: 0.216 h⁻¹
- k (elimination rate constant) [6, 18]: 0.192 h⁻¹
- lag time ([6]; mice, single oral dose, all the three doses (50, 100, 200 mg/kg)): 50 to 55 min
- concentrations in plasma and whole blood compared ([6]; mice, untreated and orally treated): almost identical
- half-life [6]: 2.1 to 3.6 h
- CL/F ([6]; 50 mg/kg): 128 mL/min/kg
- Cmax ([6]; 50 mg/kg): 13.9 µM
- half-life ([6]; 50 mg/kg): 2.1 h
- Tmax ([6]; 50 mg/kg, tmax, mice, single oral dose 50 mg/kg): ~4 h
- CL/F ([6]; 100 mg/kg): 138 mL/min/kg
- Cmax ([6]; 100 mg/kg): 18.7 µM
- half-life ([6]; 100 mg/kg): 3.5 h
- Tmax ([6]; 100 mg/kg, tmax, mice, single oral dose 100 mg/kg): ~4 h
- CL/F ([6]; 200 mg/kg): 259 mL/min/kg
- Cmax ([6]; 200 mg/kg): 19.5 ± 3.36 µM
- half-life ([6]; 200 mg/kg): 3.6 h
- Tmax ([6]; 200 mg/kg, time of peak blood concentration (tmax), mice, single oral doses of 50, 100 and 200 mg/kg): 4 h
- Tmax ([6]; 200 mg/kg, tmax, mice, single oral dose 200 mg/kg): ~4 h
- tumor development [7]: no tumor developed
- healthy litters per female, on an average [8]: 5
- V ([9]; time after last dose 48-120 h): 50.89 L/kg
- k ([9]; time after last dose 48-120 h): 0.0231 h − 1
- V [9, 19]: 73.90 L/kg
- k [9, 19]: 0.0017 h − 1
- day from which peak concentration was achieved [9, 20]: three
- day on which the basal level was reached [9, 20]: ~35 days
- half-life at 30 days ([9]; time after last dose 48-120 h): 30 h
- half-life at 30 days [9, 19]: 408 h
- effect on cell proliferation in the peritoneal cavity (EAC cells [10]; EAC cell-inoculated mice, doses of Table 9): significant inhibitory effect
- % of cells present in respect of the control (EAC cells [10]; MG 30 mg/kg/day, Day 10): 5%
- No. of EAC cells (in million) (EAC cells [10]; MG 30 mg/kg/day, Day 10): 15 ± 2 million
- % of cells present in respect of the control (EAC cells [10]; MG 30 mg/kg/day, Day 14): 13%
- No. of EAC cells (in million) (EAC cells [10]; MG 30 mg/kg/day, Day 14): 230 ± 10 million
- Volume of packed cells (EAC cells [10]; MG 30 mg/kg/day, Day 14): 0.26 ± 0.02 mL
- % of cells present in respect of the control (EAC cells [10]; MG 30 mg/kg/day, Day 18): 23%
- No. of EAC cells (in million) (EAC cells [10]; MG 30 mg/kg/day, Day 18): 820 ± 30 million
- Volume of packed cells (EAC cells [10]; MG 30 mg/kg/day, Day 18): 0.96 ± 0.05 mL
- % of cells present in respect of the control (EAC cells [10]; MG 100 mg/kg/day, Day 10): 0%
- % of cells present in respect of the control (EAC cells [10]; MG 100 mg/kg/day, Day 14): 0%
- % of cells present in respect of the control (EAC cells [10]; MG 100 mg/kg/day, Day 18): 0%
- general physical conditions and behavioral pattern vs control [11]: no abnormalities
